Numbers after ± are expanded uncertainties.
Key:
[1] = 298.15 K, 101.33 kPa, Liquid; for viscosity: Capillary tube (Ostwald / Ubbelohde) method; for speed of sound: Sing-around technique in a fixed-path interferometer; for mass density: Vibrating tube method
[2] = xn = mol fraction of the nth substance listed; details: 298.15 K, 101 kPa, Liquid; for speed of sound: Sing-around technique in a fixed-path interferometer; for viscosity: Capillary tube (Ostwald / Ubbelohde) method; for mass density: Vibrating tube method

ClC(Cl)=C(Cl)Cl [tetrachloroethene]
[1]
Details | mass density [kg/m3] | speed of sound [m/s] | viscosity [mPa·s]
– | 1614.49 ± 0.79 | 1039 ± 2 | 0.847 ± 0.008

CC1CCCCC1 [methylcyclohexane] + CCCCCCCO
Details | speed of sound [m/s]
[2], x2 = 0 | 1215 ± 2

CC1CCCCC1 [methylcyclohexane]
[1]
Details | mass density [kg/m3] | speed of sound [m/s] | viscosity [mPa·s]
– | 764.99 ± 0.24 | 1209 ± 2 | 0.684 ± 0.007

CCCCCCCO [heptan-1-ol] + ClC(Cl)=C(Cl)Cl
Details | speed of sound [m/s]
[2], x1 = 1 | 1329 ± 2

CC1CCCCC1 [methylcyclohexane] + ClC(Cl)=C(Cl)Cl
Details | speed of sound [m/s]
[2], x2 = 0 | 1215 ± 2

ClC(Cl)=C(Cl)Cl [tetrachloroethene] + CCCCCCCO
[2]
Details | mass density [kg/m3] | speed of sound [m/s] | viscosity [mPa·s]
x2 = 0 | – | 1039 ± 2 | –
x2 = 0.093 | 1514.31 ± 0.69 | – | –
x2 = 0.0967 | – | 1050 ± 2 | –
x2 = 0.102 | – | – | 0.995 ± 0.008
x2 = 0.1957 | – | 1069 ± 2 | –
x2 = 0.1994 | 1409 ± 0.62 | – | –
x2 = 0.2118 | – | – | 1.222 ± 0.01
x2 = 0.2492 | – | 1082 ± 2 | –
x2 = 0.2498 | – | – | 1.32 ± 0.01
x2 = 0.2502 | 1361.6 ± 0.59 | – | –
x2 = 0.2952 | – | 1093 ± 2 | –
x2 = 0.2986 | 1318.1 ± 0.56 | – | –
x2 = 0.3015 | – | – | 1.457 ± 0.011
x2 = 0.3905 | – | 1120 ± 2 | –
x2 = 0.3979 | 1233.3 ± 0.54 | – | –
x2 = 0.3997 | – | – | 1.795 ± 0.014
x2 = 0.4452 | 1194.85 ± 0.53 | – | –
x2 = 0.4667 | – | 1142 ± 2 | –
x2 = 0.4983 | 1153.02 ± 0.52 | – | –
x2 = 0.4998 | – | – | 2.24 ± 0.017
x2 = 0.5478 | – | – | 2.485 ± 0.019
x2 = 0.5495 | 1114.05 ± 0.47 | – | –
x2 = 0.5531 | – | 1169 ± 2 | –
x2 = 0.587 | – | – | 2.703 ± 0.021
x2 = 0.5894 | – | 1178 ± 2 | –
x2 = 0.5995 | 1077.22 ± 0.41 | – | –
x2 = 0.6488 | 1042 ± 0.36 | – | –
x2 = 0.6507 | – | 1200 ± 2 | –
x2 = 0.6969 | 1008.69 ± 0.31 | – | –
x2 = 0.6995 | – | – | 3.451 ± 0.026
x2 = 0.7002 | – | 1217 ± 2 | –
x2 = 0.74 | – | – | 3.742 ± 0.028
x2 = 0.7932 | 944.69 ± 0.27 | – | –
x2 = 0.7954 | – | – | 4.184 ± 0.031
x2 = 0.7989 | – | 1252 ± 2 | –
x2 = 0.8497 | 908.83 ± 0.25 | – | –
x2 = 0.8969 | – | 1290 ± 2 | –
x2 = 0.8985 | – | – | 5.06 ± 0.037
x2 = 0.8986 | 878.72 ± 0.24 | – | –

CCCCCCCO [heptan-1-ol]
[1]
Details | mass density [kg/m3] | speed of sound [m/s] | viscosity [mPa·s]
– | 818.77 ± 0.24 | 1329 ± 2 | 6.041 ± 0.044

CCCCCCCO [heptan-1-ol] + CC1CCCCC1
[2]
Details | mass density [kg/m3] | speed of sound [m/s] | viscosity [mPa·s]
x1 = 0.1 | 770.2 ± 0.24 | – | –
x1 = 0.1009 | – | – | 0.797 ± 0.006
x1 = 0.1031 | – | 1217 ± 2 | –
x1 = 0.1506 | 773.03 ± 0.24 | – | –
x1 = 0.2001 | 775.76 ± 0.24 | – | –
x1 = 0.2007 | – | – | 0.956 ± 0.008
x1 = 0.2024 | – | 1225 ± 2 | –
x1 = 0.3006 | – | 1236 ± 2 | –
x1 = 0.3011 | 781.37 ± 0.24 | – | 1.174 ± 0.009
x1 = 0.4 | 786.91 ± 0.24 | – | –
x1 = 0.4011 | – | – | 1.461 ± 0.011
x1 = 0.4033 | – | 1247 ± 2 | –
x1 = 0.449 | 789.61 ± 0.24 | – | –
x1 = 0.4501 | – | – | 1.64 ± 0.013
x1 = 0.4973 | – | 1259 ± 2 | –
x1 = 0.4985 | – | – | 1.839 ± 0.014
x1 = 0.5002 | 792.45 ± 0.24 | – | –
x1 = 0.5394 | – | 1264 ± 2 | –
x1 = 0.5497 | 795.18 ± 0.24 | – | –
x1 = 0.5999 | 797.98 ± 0.24 | – | –
x1 = 0.6026 | – | 1273 ± 2 | –
x1 = 0.6033 | – | – | 2.384 ± 0.018
x1 = 0.6503 | 800.71 ± 0.24 | – | –
x1 = 0.7007 | 803.42 ± 0.24 | – | –
x1 = 0.7045 | – | 1287 ± 2 | –
x1 = 0.7417 | – | – | 3.369 ± 0.025
x1 = 0.7972 | – | 1300 ± 2 | –
x1 = 0.7985 | – | – | 3.875 ± 0.029
x1 = 0.8 | 808.68 ± 0.24 | – | –
x1 = 0.8495 | 811.24 ± 0.24 | – | –
x1 = 0.8951 | – | 1315 ± 2 | –
x1 = 0.8998 | 813.8 ± 0.24 | – | –
x1 = 0.9006 | – | – | 4.922 ± 0.036
x1 = 1 | – | 1329 ± 2 | –

ClC(Cl)=C(Cl)Cl [tetrachloroethene] + CC1CCCCC1
[2]
Details | mass density [kg/m3] | speed of sound [m/s] | viscosity [mPa·s]
x1 = 0.0999 | – | – | 0.69 ± 0.006
x1 = 0.1007 | 834.38 ± 0.25 | – | –
x1 = 0.1924 | 900.06 ± 0.27 | – | –
x1 = 0.2 | 905.67 ± 0.27 | – | –
x1 = 0.2068 | – | – | 0.698 ± 0.006
x1 = 0.2439 | – | 1184 ± 2 | –
x1 = 0.2504 | 942.96 ± 0.3 | – | –
x1 = 0.2505 | – | – | 0.701 ± 0.006
x1 = 0.2982 | – | – | 0.705 ± 0.006
x1 = 0.3011 | 981.34 ± 0.33 | – | –
x1 = 0.3029 | 982.75 ± 0.33 | – | –
x1 = 0.3944 | – | – | 0.716 ± 0.006
x1 = 0.4001 | 1058.76 ± 0.42 | – | –
x1 = 0.4173 | – | 1156 ± 2 | –
x1 = 0.4897 | – | 1146 ± 2 | –
x1 = 0.4996 | – | – | 0.728 ± 0.006
x1 = 0.5009 | 1141.4 ± 0.54 | – | –
x1 = 0.5494 | – | 1136 ± 2 | –
x1 = 0.5503 | 1183.38 ± 0.54 | – | –
x1 = 0.5984 | 1225.08 ± 0.55 | – | –
x1 = 0.6016 | – | – | 0.746 ± 0.006
x1 = 0.6496 | 1270.62 ± 0.56 | – | –
x1 = 0.6549 | – | 1116 ± 2 | –
x1 = 0.7007 | – | – | 0.765 ± 0.006
x1 = 0.7014 | 1317.87 ± 0.57 | – | –
x1 = 0.7372 | – | 1098 ± 2 | –
x1 = 0.7786 | – | 1089 ± 2 | –
x1 = 0.7995 | 1410.5 ± 0.62 | – | –
x1 = 0.8008 | – | – | 0.789 ± 0.006
x1 = 0.8104 | – | 1082 ± 2 | –
x1 = 0.8418 | – | 1075 ± 2 | –
x1 = 0.8489 | 1458.9 ± 0.65 | – | –
x1 = 0.8693 | – | 1069 ± 2 | –
x1 = 0.8986 | 1508.67 ± 0.69 | – | –
x1 = 0.8996 | – | – | 0.816 ± 0.007
x1 = 0.9188 | – | 1057 ± 2 | –
x1 = 1 | – | 1039 ± 2 | –
